Legend:
[1] = system: varicella zoster virus; assay: Informal trials: topical ivermectin lotion in patients with herpes zoster (shingles); format: in vivo, human
Text: For treating herpes zoster, preferably the surface of the affected area of the skin is gently scratched prior to rubbing the composition containing the macrocyclic lactone compound on the area. Gentle scratching abrades the stratumcorium, which allows better penetration of the macrocyclic lactone compound into the skin. The stratum corneum is the outermost layer of the epidermis, composed of large, polyhedral, plate-like envelopes filled with keratin, which is made up of dead cells that have migrated up from the stratum granulosum. As these dead cells slough off on the surface, they are continuously replaced by new cells from the stratum germinativum. Alternatively, the composition can be dispensed on the affected area, and then scratched into the area. Scratching with cleaned finger nails or a sterilized scraping tool, for example small sharp curette or a needle point, can be used.
(§1) The composition can be applied topically to the affected area one or more times a day, typically one to two times a day, when a herpes simplex episode occurs or during the course of shingles or chicken box. When the pain is severe, the composition can be applied more frequently to help alleviate the symptoms. Moreover, the composition can also be integrated into or applied on medical dressing, dermal patch, or lint free wipes, which can be applied to the affected area as needed, to provide a more extended exposure to the medication.
For herpes zoster, at the early onset the patient develops a patch of linear area of paresthesia, and hyperesthesia (burning, stinging, and pain). At this time, the composition containing ivermectin should be topically applied promptly and scratched into the skin. Concurrently, an oral antiviral medication can be used promptly.
(§2) Operating with informed consent of individuals, individuals were treated with the topical composition and the method of the present invention for treating herpes virus infection, more particularly herpes simplex and herpes zoster or shingles, as described in Examples 3 to 8.

[2] = system: herpes simplex virus; assay: Informal trials: topical ivermectin lotion in patients with herpes simplex; format: in vivo, human
Text: The composition of the present invention described above is applied to the affected area of patients having herpes simplex, herpes zoster, or chicken-pox. Preferably, the lotion, cream, gel, or ointment can be applied on the affected area with gentle rubbing to help penetration of the macrocyclic lactone compound into the skin. Moreover, when lotion, cream, or hydrogel is used, preferably the affected area is dampened by water first, then a drop of lotion, cream, or hydrogel is rubbed on the affected area by finger(s). […] Moreover, if blisters are already formed at the affected area, at the time of applying the topical composition the blisters can be broken using a needle, then the composition is rubbed in the lesion.
as §1
The most impressive results are seen with early recognition and treatment. […] In medicine, a prodrome is an early symptom (or set of symptoms) that might indicate the start of a disease before specific symptoms occur. Prodromes may be non-specific symptoms or, in some instances, may clearly indicate a particular disease. In herpes simplex there is a prodrome consisting of a change in sensation, typically slight numbness or a faint tingling sensation with vague swelling or induration.
as §2

[3] = Side effects and tolerability observed in treated patients; format: in vivo, human; settings: Example 5: person, high dose
Procedure: Operating with informed consent of individuals, individuals were treated with the topical composition and the method of the present invention for treating herpes virus infection, more particularly herpes simplex and herpes zoster or shingles, as described in Examples 3 to 8. In the above described informal trials, no adverse side effects or contra-indications were observed among the patients. The patients had no complaints of skin irritation, sensitivity or discomfort originating from the treatment.

[4] = system: herpes simplex virus; settings: cited from earlier work
[5] = topical composition, ivermectin concentration as low as 0.075%

Molecule: CC(=O)OCC(CCn1cnc2cnc(N)nc21)COC(C)=O [Famvir®, famciclovir]
- Response of severe pain with burning and tingling to prior therapy ([1]; Example 6: person, high dose): had not responded

Molecule: CC(C)[C@H](N)C(=O)OCCOCn1cnc2c(=O)[nH]c(N)nc21 [Valtrex®, valacyclovir]
- Satisfaction with prior therapy ([2]; Example 5: person, high dose): without total satisfaction
- Side effects of prior therapy [3]: cardiac irregularities, especially bigeminy and trigeminy

Molecule: Nc1nc2c(ncn2COCCO)c(=O)[nH]1 [Zovirax®, acyclovir]
- Benefit of prior therapy, orally ([2]; Example 3: patient history, oral): with benefit
- Benefit of prior therapy, topically ([2]; Example 3: patient history, topical): without benefit

Molecule: O=c1[nH]c(=O)n([C@H]2C[C@H](O)[C@@H](CO)O2)cc1I [idoxuridine]
- Pain duration ([4]; topical, reported in a study): reduced pain duration
- Time to loss of crust ([4]; topical, reported in a study): decreased time to loss of crust

Molecule: Nc1nc2c(ncn2CCC(CO)CO)c(=O)[nH]1 [penciclovir]
- Duration of lesions, pain, and viral shedding ([4]; cream applied early and late in course of HSV infection (Hamuy et al. 1998)): decreased the duration of lesions, pain, and viral shedding

Molecule: ivermectin
- Effectiveness in treating herpes simplex [2, 5]: effective
- Effectiveness in treating herpes zoster [1, 5]: effective
- Effect of combined systematic and topical treatments on severity of herpes zoster ([1]; topical ivermectin composition with concurrent oral antiviral medication): synergistic effect in decreasing the severity
